Laboratory results: the supplement of paper PMC10307832

Tests used:
Assay in all cases: relative viability (nuclei count vs DMSO), 5 days (fraction); higher = more cells survive
Dovitinib + Vorinostat = compound: CN1CCN(c2ccc3nc(-c4c(N)c5c(F)cccc5[nH]c4=O)[nH]c3c2)CC1 [Dovitinib] + O=C(CCCCCCC(=O)Nc1ccccc1)NO [Vorinostat] (partner 1 µM)
Outline: (§1)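 Lung cancer cell lines were pin-tool dosed in 1536-well plates on the day after seeding, with either a lone drug or a fixed anchor-drug dose plus five library-drug doses (not always all listed) in √10 steps. Nuclei were counted on 4× images after 5 days. Relative viability is the ratio of treated-well to vehicle-well nuclei counts, with each value a median of duplicate plates.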

Dovitinib + Dasatinib = compound: CN1CCN(c2ccc3nc(-c4c(N)c5c(F)cccc5[nH]c4=O)[nH]c3c2)CC1 [Dovitinib] + Cc1nc(Nc2ncc(C(=O)Nc3c(C)cccc3Cl)s2)cc(N2CCN(CCO)CC2)n1 [Dasatinib] (partner 0.075 µM)
Outline: as §1

Dovitinib + Pictilisib = compound: CN1CCN(c2ccc3nc(-c4c(N)c5c(F)cccc5[nH]c4=O)[nH]c3c2)CC1 [Dovitinib] + CS(=O)(=O)N1CCN(Cc2cc3nc(-c4cccc5[nH]ncc45)nc(N4CCOCC4)c3s2)CC1 [Pictilisib] (partner 1 µM)
Outline: as §1

Dovitinib + Crizotinib = compound: CN1CCN(c2ccc3nc(-c4c(N)c5c(F)cccc5[nH]c4=O)[nH]c3c2)CC1 [Dovitinib] + C[C@@H](Oc1cc(-c2cnn(C3CCNCC3)c2)cnc1N)c1c(Cl)ccc(F)c1Cl [Crizotinib] (partner 1 µM)
Outline: as §1

Cell Line	relative viability (Dovitinib + Vorinostat; first compound 0.02 µM)	relative viability (Dovitinib + Vorinostat; first compound 0.06325 µM)	relative viability (Dovitinib + Vorinostat; first compound 0.2 µM)	relative viability (Dovitinib + Vorinostat; first compound 0.6325 µM)	relative viability (Dovitinib + Vorinostat; first compound 2 µM)	relative viability (Dovitinib + Dasatinib; first compound 0.02 µM)	relative viability (Dovitinib + Dasatinib; first compound 0.06325 µM)	relative viability (Dovitinib + Dasatinib; first compound 0.2 µM)	relative viability (Dovitinib + Dasatinib; first compound 0.6325 µM)	relative viability (Dovitinib + Dasatinib; first compound 2 µM)	relative viability (Dovitinib + Pictilisib; first compound 0.02 µM)	relative viability (Dovitinib + Pictilisib; first compound 0.06325 µM)	relative viability (Dovitinib + Pictilisib; first compound 0.2 µM)	relative viability (Dovitinib + Pictilisib; first compound 0.6325 µM)	relative viability (Dovitinib + Pictilisib; first compound 2 µM)	relative viability (Dovitinib + Crizotinib; first compound 0.02 µM)	relative viability (Dovitinib + Crizotinib; first compound 0.06325 µM)	relative viability (Dovitinib + Crizotinib; first compound 0.2 µM)	relative viability (Dovitinib + Crizotinib; first compound 0.6325 µM)	relative viability (Dovitinib + Crizotinib; first compound 2 µM)
NCI-H23	0.551	0.699	0.616	0.735	0.643	0.837	0.729	0.976	0.731	0.734	0.44	0.444	0.451	0.493	0.433	0.539	0.531	0.526	0.421	0.554
NCI-H322M	0.768	0.831	0.807	0.926	0.84	0.24	0.263	0.243	0.249	0.284	0.501	0.446	0.464	0.542	0.674	0.893	0.874	0.976	0.928	1.06
NCI-H358	0.673	0.808	0.738	0.619	0.639	0.154	0.177	0.176	0.184	0.179	0.343	0.308	0.367	0.356	0.45	0.569	0.566	0.507	0.459	0.793
NCI-H441	0.76	0.795	0.849	0.628	0.772	0.708	0.556	0.675	0.568	0.63	0.521	0.528	0.517	0.477	0.47	0.597	0.661	0.715	0.862	0.798
NCI-H460	0.682	0.77	0.729	0.711	0.711	0.407	0.489	0.555	0.505	0.476	0.32	0.26	0.342	0.335	0.344	0.852	1.02	0.869	0.941	0.919
NCI-H520	0.765	0.698	0.62	0.656	0.643	0.165	0.188	0.235	0.179	0.218	0.203	0.247	0.337	0.269	0.227	0.746	0.724	0.782	0.781	0.798
NCI-H596	0.746	0.606	0.569	0.517	0.694	0.646	0.523	0.552	0.647	0.534	0.372	0.394	0.376	0.387	0.428	0.989	0.916	1.11	1.14	0.984
NCI-H647	0.52	0.658	0.659	0.434	0.851	0.151	0.152	0.209	0.171	0.21	0.285	0.413	0.457	0.414	0.419	1.03	1.14	1.24	1.01	1.1
